Molecular target: T1, PDE10 (UniProt Q8CA95)
T1 sequence (Q8CA95 1-790): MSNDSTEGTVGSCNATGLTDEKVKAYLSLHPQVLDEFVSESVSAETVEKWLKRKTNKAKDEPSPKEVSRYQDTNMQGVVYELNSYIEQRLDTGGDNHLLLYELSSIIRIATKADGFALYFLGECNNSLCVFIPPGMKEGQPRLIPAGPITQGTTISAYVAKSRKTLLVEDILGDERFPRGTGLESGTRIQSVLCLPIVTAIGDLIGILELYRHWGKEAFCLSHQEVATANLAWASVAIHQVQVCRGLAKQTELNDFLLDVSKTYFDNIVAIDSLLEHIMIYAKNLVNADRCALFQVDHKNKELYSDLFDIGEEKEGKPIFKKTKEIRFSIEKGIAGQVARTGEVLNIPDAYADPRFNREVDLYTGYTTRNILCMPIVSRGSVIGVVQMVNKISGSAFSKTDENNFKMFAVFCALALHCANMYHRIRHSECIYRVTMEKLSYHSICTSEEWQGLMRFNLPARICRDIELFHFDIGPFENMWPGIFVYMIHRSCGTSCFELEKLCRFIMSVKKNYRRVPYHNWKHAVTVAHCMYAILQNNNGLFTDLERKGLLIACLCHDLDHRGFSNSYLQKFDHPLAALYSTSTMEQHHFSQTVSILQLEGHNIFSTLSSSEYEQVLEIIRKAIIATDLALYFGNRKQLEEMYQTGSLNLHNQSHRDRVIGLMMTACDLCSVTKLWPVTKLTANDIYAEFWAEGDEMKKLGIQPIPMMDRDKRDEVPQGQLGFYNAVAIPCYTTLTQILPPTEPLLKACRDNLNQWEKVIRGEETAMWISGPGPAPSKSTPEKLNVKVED
Experiment: PDE10 enzyme inhibition, IMAP TR-FRET assay (Example A: MPDE10A7 Enzyme Activity and Inhibition)
Assay type: biochemical
Conditions: Table 1A, Examples 11-56; read-out: PDE10 IC50
Experimental: MPDE10A7 Enzyme Activity and Inhibition Enzyme Activity. An IMAP TR-FRET assay was used to analyze the enzyme activity (Molecular Devices Corp., Sunnyvale Calif.). 5 μL of serial diluted PDE10A (BPS Bioscience, San Diego, Calif.) or tissue homogenate was incubated with equal volumes of diluted fluorescein labeled cAMP or cGMP for 60 min in 384-well polystyrene assay plates (Corning, Corning, N.Y.) at room temperature. After incubation, the reaction was stopped by adding 60 μL of diluted binding reagents and was incubated for 3 hours to overnight at room temperature. The plates were read on an Envision (Perkin Elmer, Waltham, Mass.) for time resolved fluorescence resonance energy transfer. The data were analyzed with GraphPad Prism (La Jolla, Calif.). Enzyme Inhibition. To check the inhibition profile, 5 μL of serial diluted compounds were incubated with 5 μL of diluted PDE10 enzyme (BPS Bioscience, San Diego, Calif.) or tissue homogenate in a 384-well polystyrene assay plate (Corning, Corning, N.Y.) for 30 min at room temperature. After incubation, 10 μL of diluted fluorescein labeled cAMP or cGMP substrate were added and incubated for 60 min at room temperature. The reaction was stopped by adding 60 μL of diluted binding reagents and plates were read on an Envision (Perkin Elmer, Waltham, Mass.) for time resolved fluorescence resonance energy transfer. The data were analyzed with GraphPad Prism (La Jolla, Calif.).

SMILES | IC50 [µM]
Clc1ccc2[nH]c(C3CN(c4ncccc4OC4CCOCC4)C3)nc2c1 [Example 49, 5-chloro-2-(1-(3-(tetrahydro-2H-pyran-4-yloxy)pyridin-2-yl)azetidin-3-yl)-1H-benzo[d]imidazole] | 0.168
O=C(NC[C@@H]1CCCO1)c1nccnc1N1CC(c2nc3cc(Cl)ccc3[nH]2)C1 [Example 38, 3-[3-(5-chloro-1H-benzoimidazol-2-yl)-azetidin-1-yl]-pyrazine-2-carboxylic acid (tetrahydro-furan-2-ylmethyl)-amide] | 2.15
COc1cccc(-c2nccnc2N2CC(c3nc4cc(Cl)ccc4[nH]3)C2)c1 [Example 28, 5-chloro-2-{1-[3-(3-methoxy-phenyl)-pyrazin-2-yl]-azetidin-3-yl}-1H-benzoimidazole] | 0.026
O=C(c1cccnc1N1CC(c2nc3cc(Cl)ccc3[nH]2)C1)N1CCC1 [Example 16, Azetidin-1-yl-{2-[3-(5-chloro-1H-benzoimidazol-2-yl)-azetidin-1-yl]-pyridin-3-yl}-methanone] | 1.18
O=C(NC1CCOCC1)c1nccnc1N1CC(c2nc3cc(Cl)ccc3[nH]2)C1 [Example 36, 3-[3-(5-chloro-1H-benzoimidazol-2-yl)-azetidin-1-yl]-pyrazine-2-carboxylic acid (tetrahydro-pyran-4-yl)-amide] | 3.28
Clc1ccc2[nH]c(C3CN(c4nccnc4N4CCOCC4)C3)nc2c1 [Example 50, 4-(3-(3-(5-chloro-1H-benzo[d]imidazol-2-yl)azetidin-1-yl)pyrazin-2-yl)morpholine] | 0.134
COc1ccc(-c2nccnc2N2CC(c3nc4cc(Cl)ccc4[nH]3)C2)cc1 [Example 29, 5-chloro-2-{1-[3-(4-methoxy-phenyl)-pyrazin-2-yl]-azetidin-3-yl}-1H-benzoimidazole] | 0.11
Clc1ccc(-c2nccnc2N2CC(c3nc4cc(Cl)ccc4[nH]3)C2)cc1 [Example 32, 5-chloro-2-{1-[3-(4-chloro-phenyl)-pyrazin-2-yl]-azetidin-3-yl}-1H-benzoimidazole] | 0.141
Clc1ccc2[nH]c(C3CN(c4nccnc4Cl)C3)nc2c1 [Example 53, 5-chloro-2-(1-(3-chloropyrazin-2-yl)azetidin-3-yl)-1H-benzo[d]imidazole] | 1.16
O=C(NCCc1ccccc1)c1cccnc1N1CC(c2nc3cc(Cl)ccc3[nH]2)C1 [Example 20, 2-[3-(5-chloro-1H-benzoimidazol-2-yl)-azetidin-1-yl]-N-phenethyl-nicotinamide] | 1.68
O=C(Nc1ccccc1)c1cccnc1N1CC(c2nc3cc(Cl)ccc3[nH]2)C1 [Example 18, 2-[3-(5-chloro-1H-benzoimidazol-2-yl)-azetidin-1-yl]-N-phenyl-nicotinamide] | 2.6
CC(C)CNC(=O)c1cccnc1N1CC(c2nc3cc(Cl)ccc3[nH]2)C1 [Example 22, 2-[3-(5-chloro-1H-benzoimidazol-2-yl)-azetidin-1-yl]-N-isobutyl-nicotinamide] | 2.23
O=C(NC[C@H]1CCCO1)c1nccnc1N1CC(c2nc3cc(Cl)ccc3[nH]2)C1 [Example 37, 3-[3-(5-chloro-1H-benzoimidazol-2-yl)-azetidin-1-yl]-pyrazine-2-carboxylic acid (tetrahydro-furan-2-ylmethyl)-amide] | 2.53
Clc1ccc2[nH]c(C3CN(c4nccnc4-c4ccncc4)C3)nc2c1 [Example 34, 5-chloro-2-[1-(3-pyridin-4-yl-pyrazin-2-yl)-azetidin-3-yl]-1H-benzoimidazole] | 0.134
Clc1ccc2[nH]c(C3CN(c4nccnc4-c4ccccc4Cl)C3)nc2c1 [Example 30, 5-chloro-2-{1-[3-(2-chloro-phenyl)-pyrazin-2-yl]-azetidin-3-yl}-1H-benzoimidazole] | 0.0586
Clc1ccc2[nH]c(C3CN(c4nccnc4N4CCCCC4)C3)nc2c1 [Example 44, 5-chloro-2-(1-(3-(piperidin-1-yl)pyrazin-2-yl)azetidin-3-yl)-1H-benzo[d]imidazole] | 0.92
N#Cc1ccc2[nH]c(C3CN(c4nccnc4-c4ccccc4)C3)nc2c1 [Example 14, 2-[1-(3-phenyl-pyrazin-2-yl)-azetidin-3-yl]-1H-benzoimidazole-5-carbonitrile] | 0.161
Clc1ccc2[nH]c(C3CN(c4ncccc4C4CCOCC4)C3)nc2c1 [Example 56, 5-chloro-2-(1-(3-(tetrahydro-2H-pyran-4-yl)pyridin-2-yl)azetidin-3-yl)-1H-benzo[d]imidazole] | 0.987
Cc1cccc(-c2nccnc2N2CC(c3nc4cc(Cl)ccc4[nH]3)C2)c1 [Example 25, 5-chloro-2-[1-(3-m-tolyl-pyrazin-2-yl)-azetidin-3-yl]-1H-benzoimidazole] | 0.015
Clc1ccc2[nH]c(C3CN(c4ncccc4Br)C3)nc2c1 [Example 52, 2-(1-(3-bromopyridin-2-yl)azetidin-3-yl)-5-chloro-1H-benzo[d]imidazole] | 1.82

Same assay, conditions: Table 2A, Examples 61-64; read-out: IC50

SMILES | IC50 [µM]
CC1CCN(c2nccnc2N2CC(c3ccc4ccccc4n3)C2)C1 (stereo not drawn) [Example 63, 2-{1-[3-(3-Methyl-pyrrolidin-1-yl)-pyrazin-2-yl]-azetidin-3-yl}-quinoline] | 0.641
CC1CCN(c2nccnc2N2CC(c3ccc4ccccc4n3)C2)CC1 [Example 61, 2-{1-[3-(4-Methyl-piperidin-1-yl)-pyrazin-2-yl]-azetidin-3-yl}-quinoline] | 3.12

Same assay, conditions: read-out: IC50

SMILES | IC50 [µM]
Clc1ccc2[nH]c(C3CN(c4cc(C5CCOCC5)ncn4)C3)nc2c1 [Example 6, 5-CHLORO-2-(1-(6-(TETRAHYDRO-2H-PYRAN-4-YL)PYRIMIDIN-4-YL)AZETIDIN-3-YL)-1H-BENZO[D]IMIDAZOLE] | 1.28
Clc1ccc2[nH]c(C3CN(c4nccnc4OC4CCOCC4)C3)nc2c1 [Example 10, 5-CHLORO-2-(1-(3-(TETRAHYDRO-2H-PYRAN-4-YLOXY)PYRAZIN-2-YL)AZETIDIN-3-YL)-1H-BENZO[D]IMIDAZOLE] | 0.9
c1cnc(N2CC(c3ccc4ccccc4n3)C2)c(N2CCCCC2)c1 [Example 59, 2′-(3-QUINOLIN-2-YL-AZETIDIN-1-YL)-3,4,5,6-TETRAHYDRO-2H-[1,3′]BIPYRIDINYL] | 0.068
Cc1cccc(-c2nccnc2N2CC(c3ccc4ccccc4n3)C2)c1 [Example 58, 2-[1-(3-M-TOLYL-PYRAZIN-2-YL)-AZETIDIN-3-YL]-QUINOLINE] | 0.00761
Clc1ccc2[nH]c(C3CN(c4nc(N5CCOCC5)ncc4Cl)C3)nc2c1 [Example 7, 4-(5-CHLORO-4-(3-(5-CHLORO-1H-BENZO[D]IMIDAZOL-2-YL)AZETIDIN-1-YL)PYRIMIDIN-2-YL)MORPHOLINE] | 0.155
Clc1ccc2[nH]c(C3CN(c4cc(OC5CCOCC5)ccn4)C3)nc2c1 [Example 5, 5-CHLORO-2-(1-(4-(TETRAHYDRO-2H-PYRAN-4-YLOXY)PYRIDIN-2-YL)AZETIDIN-3-YL)-1H-BENZO[D]IMIDAZOLE] | 1.09
Clc1ccc2[nH]c(C3CN(c4ccnc(N5CCOCC5)n4)C3)nc2c1 [Example 1D, 4-(4-(3-(5-CHLORO-1H-BENZO[D]IMIDAZOL-2-YL)AZETIDIN-1-YL)PYRIMIDIN-2-YL)MORPHOLINE] | 0.645
Cc1ccc2[nH]c(C3CN(c4c(Cl)cncc4Cl)C3)nc2c1 [Example 2A, 2-[1-(3,5-DICHLORO-PYRIDIN-4-YL)-AZETIDIN-3-YL]-5-METHYL-1H-BENZOIMIDAZOLE] | 0.21
COc1cccc(-c2cccnc2N2CC(c3ccc4ccccc4n3)C2)c1 [Example 60, 2-{1-[3-(3-METHOXY-PHENYL)-PYRIDIN-2-YL]-AZETIDIN-3-YL}-QUINOLINE] | 6.82
Clc1ccc2[nH]c(C3CN(c4cc(C5CCOCC5)ccn4)C3)nc2c1 [Example 9, 5-CHLORO-2-(1-(4-(TETRAHYDRO-2H-PYRAN-4-YL)PYRIDIN-2-YL)AZETIDIN-3-YL)-1H-BENZO[D]IMIDAZOLE] | 1.17
Cc1ccc2[nH]c(C3CN(c4c(Cl)cncc4-c4ccccc4)C3)nc2c1 [Example 2B, 2-[1-(3-CHLORO-5-PHENYL-PYRIDIN-4-YL)-AZETIDIN-3-YL]-5-METHYL-1H-BENZOIMIDAZOLE] | 0.022
